{"source": "patent EP2043663B1", "about": "“TOPICAL TREATMENT OF WARTS” (ITH Immune Therapy Holdings AB, priority 2006, dated 2008)", "key": {"common wart": {"system": "common wart", "experiment": "Treatment of warts II: gelled aqueous dithionite solution applied to a wart", "format": "in vivo, person", "conditions": "several drops of freshly prepared aqueous solution containing 2.0 % by weight of hydroxypropylmethyl cellulose; back of hand; rinsed after half an hour; wart wetted three hours from application; wooden spatula", "description": "Treatment of warts II. Several drops of freshly prepared aqueous solution of sodium dithionite containing 2.0 % by weight of hydroxypropylmethyl cellulose are applied to a common wart on the back of a persons hand. After half an hour the hand is rinsed with water. Three hours from application the wart is wetted."}, "epithelial cells": {"system": "epithelial cells", "experiment": "Epithelial cytotoxicity cell assay", "format": "cell-based", "conditions": "AIM V medium"}}}
{"smiles": "O=S([O-])S(=O)[O-].[Na+].[Na+]", "note": "[sodium dithionite]", "values": [{"measurement": "removability of the wart", "setting": "common wart", "value": "easily removed"}, {"measurement": "effect on the cells (cytotoxicity)", "setting": "epithelial cells; highest concentration", "value": "substantial cell death"}, {"measurement": "effect on the cells (cytotoxicity)", "setting": "epithelial cells; lowest concentration, 0.001 g/mL", "value": "did not affect the cells"}]}
